{"source": "paper PMC3280214", "about": "“Structure Based Discovery of Small Molecules to Regulate the Activity of Human Insulin Degrading Enzyme” (PLoS ONE, 2012)", "key": {"IDE [1]": {"target": "T1, IDE (Homo sapiens, UniProt P14735)", "T1 construct": "made in house; host or cells: E. coli BL21", "T1 sequence (P14735 1-1019)": "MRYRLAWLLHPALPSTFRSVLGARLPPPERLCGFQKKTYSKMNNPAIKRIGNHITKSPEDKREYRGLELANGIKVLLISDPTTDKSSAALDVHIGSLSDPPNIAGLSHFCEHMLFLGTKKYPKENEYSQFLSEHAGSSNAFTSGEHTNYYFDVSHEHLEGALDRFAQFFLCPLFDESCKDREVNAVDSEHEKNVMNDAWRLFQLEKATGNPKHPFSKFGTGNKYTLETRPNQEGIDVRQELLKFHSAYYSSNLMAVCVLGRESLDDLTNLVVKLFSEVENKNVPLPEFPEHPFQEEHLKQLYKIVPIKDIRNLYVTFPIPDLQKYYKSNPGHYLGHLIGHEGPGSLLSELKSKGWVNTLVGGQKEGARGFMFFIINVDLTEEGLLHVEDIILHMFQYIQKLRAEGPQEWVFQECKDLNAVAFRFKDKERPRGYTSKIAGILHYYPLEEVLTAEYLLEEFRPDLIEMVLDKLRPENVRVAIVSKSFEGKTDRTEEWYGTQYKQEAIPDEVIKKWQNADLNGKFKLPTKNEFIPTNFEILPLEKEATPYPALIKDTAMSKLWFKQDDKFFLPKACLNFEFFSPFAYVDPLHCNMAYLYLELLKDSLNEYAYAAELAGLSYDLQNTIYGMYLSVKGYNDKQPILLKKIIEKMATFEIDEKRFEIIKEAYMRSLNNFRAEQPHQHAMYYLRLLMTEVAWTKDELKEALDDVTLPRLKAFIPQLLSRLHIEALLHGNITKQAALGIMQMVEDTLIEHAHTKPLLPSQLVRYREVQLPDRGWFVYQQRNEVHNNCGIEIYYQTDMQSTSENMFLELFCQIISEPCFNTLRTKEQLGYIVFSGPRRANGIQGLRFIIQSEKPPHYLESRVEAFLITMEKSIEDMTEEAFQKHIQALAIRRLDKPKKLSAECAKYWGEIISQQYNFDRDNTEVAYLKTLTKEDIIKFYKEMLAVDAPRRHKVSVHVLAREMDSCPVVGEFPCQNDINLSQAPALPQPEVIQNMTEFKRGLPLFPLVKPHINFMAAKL", "experiment": "FAβB (amyloid-β) degradation assay", "type": "biochemical", "experimental": "The 10 compounds given in Table 1 were subjected to further characterization and their effect was measured on the proteolytic activity of IDE using different substrates. Initially, activity assays were carried out at fixed 20 µM concentrations for all molecules to identify the effect of those compounds on IDE activity. IDE activity was quantified by monitoring the change in fluorescence for the proteolysis of fluorogenic-substrate V, FITC- insulin-bound antibody, and FAβB by recombinant human IDE purified from E.coli BL21 [6], [18], [19]. […] Also, D6 increased the amyloid-β degradation by 20% (Fig. S1C). Further, D10 enhanced IDE-mediated FITC-insulin-mAb and substrate V degradation by 290% and 65%, respectively (Fig. S1A, B). Next, an EC50 value of each molecule that enhanced IDE activity was determined with a dose response assay, where specific activity of IDE was measured with different concentrations of the lead compounds and then the plot was fit to Sigmoidal Hill-4 parameter equation. […] EC50 value for D3 on insulin degradation was approximately measured as 20 µM (Fig. S2C), whereas EC50 value for D6 on amyloid-β degradation was 2 µM (Fig. S2D). […] Among all these four compounds, D10 seems to be the potent activator of IDE, when proteolysis of insulin is considered.\nThis assay was performed as follows: 10 µl of 50 nM of FAβB was dissolved in a buffer which consisted of 50 mM HEPES, 100 mM NaCl, % 0,05 (v/v) bovine serum albumin, at a pH of 7.4. The reaction was initiated in a total volume of 100 µl with 20 µM drugs by adding 20 µl of 0.02 mg/ml of IDE for 2.5 h at 37°C. The reaction was stopped by adding 2 µl of 100 mM of protease inhibitor (1, 10-phenanthroline). Uncleaved FAβB was precipitated with Neutravidin- coated agarose beads by gentle rocking for 30 min. and centrifugation for 10 min at 14000 g. The supernatant was transferred to the black 96 well plates and increase in fluorescence (488 excitation, 525 emission) was measured with a multi-label plate reader.\nThe effect of the lead compounds on the initial rate of proteolysis of IDE was determined by measurement in fluorescence with time both in the presence and absence of the lead compounds. The kinetic data for IDE-mediated insulin, substrate V and amyloid-β degradation were plotted and fitted using SigmaPlot software (Sigmoidal, Hill, 4 parameter). For the initial rate calculations, kinetic data were fitted using SigmaPlot software (Hyperbola; Single Rectangular I, 3 Parameter)."}, "HeLa cells [2]": {"system": "HeLa cells", "experiment": "MTT assay for cell viability", "type": "cell-based, human", "excerpt": "We characterized the activity of novel compounds in a cellular assay to establish whether there were any cytotoxic effects. We used an established MTT (3-(4,5-dimethylthiazolyl-2)-2, 5-diphenyltetrazolium bromide or thiazolyl blue) method using HELA cells to determine whether the small molecule affects cell viability. In this method, a purple formazan dye forms as a result of the cleavage of the yellow tetrazolium MTT within metabolically active cells. The resulting precipitate of the intracellular formazan can be dissolved in a detergent solution and quantified spectrophotometrically at 595 nm. We measured the cytotoxicity by incubating HELA cells in the presence of novel compounds at concentrations ranging from 1 to 100 µM for 24 h. Cell viability was measured using the MTT method after […] culture. The extent of cell death was expressed relative to a control containing DMSO. […] Therefore, as a next step we tested the effects of lead compounds on insulin catabolism using HeLa cells.\nThe cytotoxicity assay was performed using human cervical cancer HeLa cells. Cells were cultured at 37°C under a humidified atmosphere of 5% CO2 in medium supplemented with 10% fetal bovine serum and dispersed in replicate 96-well plates with 2.5×10^4 cells/well. Compounds were then added. After 24 hours exposure to the chemical compounds, the cell viability was determined by 3-[4,5-dimethylthiazol-2-yl]-2,5-diphenpyltetrazolium bromide (MTT) assay. The optical density (OD) of the wells was determined using ELISA plate reader at a test wavelength of 600 nm and a reference wavelength of 630 nm. Each measurement was carried out in triplicate."}, "HeLa cells [3]": {"system": "HeLa cells", "experiment": "Cell-based degradation of FITC-insulin", "design": "species or system human", "experimental": "It was shown that HeLa cells express insulin receptor, and thus take FITC-labeled insulin inside and degrade it intracellularly, [21], [22]. First, FITC-insulin was added to the culture that contains HeLa cells and incubated for 2 hours in order to allow for sufficient uptake of FITC-insulin by HeLa cells. In order to ensure that FITC-labeled insulin is translocating into the cells through insulin uptake receptor, and that cytoplasmic IDE can degrade FITC- insulin, we conducted live cell imaging of HeLa cells, and recorded fluorescence. At various time points compounds, D3, D6, and D10, were added; and cells were washed with Hank's balanced salt solution (HBSS), the these cells were collected and lysed with appropriate buffer. After centrifugation, cell free extracts were used to measure the change in fluorescence by luminometer. […] Compound D10 increased in vivo proteolysis of FITC- insulin by about 32 fold with HeLa cells compared to control group (Fig. 3A). […] These findings are consistent with the data obtained by in vitro assay, showing enhanced degradation of insulin by D10 and D3 (Fig. 3A). […] This figure further verifies the significant increase in fluorescence observed in the presence of compound D10, which is consistent with our in vitro assay (Fig. 3B).\nCells were cultured at 37°C under a humidified atmosphere of 5% CO2 in medium supplemented with 10% fetal bovine serum. Then, FITC-insulin was added to cell medium and incubated for 2 h at 37°C. Next, compounds were loaded at different time intervals separately. Cells were washed with Hank's balanced salt solution (HBSS), then disrupted with 1× passive lysis buffer. Fluorescence was measured with a luminescence multi-label plate leader, and changes in fluorescence was imaged by fluorescence microscope at Burc Laboratory (Istanbul, Turkey)."}, "IDE [4]": {"system": "IDE", "settings": "bradykinin as IDE substrate; cited from earlier work"}}, "note": "Entries after “also recorded” stand apart in the source; their conditions may differ.", "data": [{"compound": "O=[N+]([O-])c1cc(Cn2c(-c3ccc(Cl)c([N+](=O)[O-])c3)nc3ccccc32)ccc1Cl", "note": "[Compound D6]", "values": [{"measurement": "increase of IDE-mediated amyloid-β degradation", "setting": "IDE [1]; 20 µM compound", "value": 20, "unit": "%"}, {"measurement": "effect of ATP on amyloid-β degradation in presence of compound", "setting": "IDE [1]; ATP, data not shown", "value": "no effect"}, {"measurement": "EC50", "setting": "IDE [1]; dose response, Sigmoidal Hill 4 parameter fit", "value": 2000, "unit": "nM"}, {"measurement": "acceleration of initial rate of amyloid-β proteolysis", "setting": "IDE [1]; presence vs absence of compound", "value": 1.3, "unit": "factor"}, {"measurement": "cytotoxicity at EC50 value", "setting": "HeLa cells [2]; 2 µM", "value": "not toxic"}, {"measurement": "cytotoxicity at high concentrations", "setting": "HeLa cells [2]; 1 to 100 µM, 24 h", "value": "showed toxicity at higher concentrations"}, {"measurement": "effect on insulin catabolism in HeLa cells", "setting": "HeLa cells [3]; HeLa cells pre-loaded with FITC-insulin", "value": "no effect on insulin catabolism; also recorded: does not change insulin degradation"}, {"measurement": "permeability through cell membrane", "setting": "HeLa cells [3]; inferred from HeLa cell assay", "value": "permeable through cell membrane"}]}, {"compound": "bradykinin (RPPGFSPFR; Bradykinin; UniProt P01042 381-389, looked up)", "values": [{"measurement": "Km", "setting": "IDE [4]", "value": 4.2, "unit": "mM"}]}]}
